Laboratory results published in ChEMBL document CHEMBL1201862, “PubChem BioAssay data set” (2004).
Activity calls are given as the source filed them.

What was measured:
cells [1] = experiment: cells
[2] = viability of uninfected HEp-2 cells – cell-based, HTS, cytotoxicity control for RSV inhibitor project, dose response (AID 2410); assay type: functional; settings: human respiratory syncytial virus
Bcl-2-like protein 10 = Bcl-2-like protein 10 (Homo sapiens, UniProt Q9HD36); experiment: Concentration-response of Bcl-B inhibitors by biochemical FP with TR3 (AID 1243); assay type: functional
[3] = target: T1, Neuropeptide Y receptor type 1 (Homo sapiens, UniProt P25929); experiment: IC50 of human NPY-Y1 blockers – cell-based, dose response (AID 1277); assay type: functional
T1 sequence (P25929 whole entry): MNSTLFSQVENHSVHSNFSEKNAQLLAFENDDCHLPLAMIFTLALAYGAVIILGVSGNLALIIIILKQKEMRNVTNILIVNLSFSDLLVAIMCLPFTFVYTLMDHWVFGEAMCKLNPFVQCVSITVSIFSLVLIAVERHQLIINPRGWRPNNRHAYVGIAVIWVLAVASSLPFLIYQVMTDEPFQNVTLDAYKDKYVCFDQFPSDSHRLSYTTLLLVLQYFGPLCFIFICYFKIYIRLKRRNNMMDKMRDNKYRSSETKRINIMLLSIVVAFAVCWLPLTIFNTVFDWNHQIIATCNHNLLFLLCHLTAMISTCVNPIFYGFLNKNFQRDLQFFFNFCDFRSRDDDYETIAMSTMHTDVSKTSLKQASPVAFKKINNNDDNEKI

[4] = target: T2, Neuropeptide Y receptor type 2 (Homo sapiens, UniProt P49146); experiment: IC50 for human NPY-Y2 blockade – cell-based, counter-screen for NPY-Y1 antagonist project, dose response (AID 1278); assay type: functional
T2 sequence (P49146 whole entry): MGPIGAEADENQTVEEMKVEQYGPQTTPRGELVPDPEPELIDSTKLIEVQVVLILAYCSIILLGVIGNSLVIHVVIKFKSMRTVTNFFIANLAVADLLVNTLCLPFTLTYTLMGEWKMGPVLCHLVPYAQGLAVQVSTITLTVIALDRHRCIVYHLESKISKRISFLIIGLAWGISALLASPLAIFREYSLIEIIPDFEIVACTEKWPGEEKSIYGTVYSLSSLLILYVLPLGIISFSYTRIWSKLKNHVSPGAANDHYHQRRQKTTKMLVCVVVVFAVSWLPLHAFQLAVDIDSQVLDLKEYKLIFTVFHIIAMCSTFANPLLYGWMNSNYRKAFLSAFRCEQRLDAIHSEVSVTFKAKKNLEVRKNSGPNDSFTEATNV

Protein RecA = target: T3, Protein RecA (Mycobacterium tuberculosis, UniProt P9WHJ3); experiment: Fluorescence Cell-Free Homogeneous Dose Retest to Identify Inhibitors of RecA-Intein Splicing Activity. [Related pubchem assays (depositor defined):AID2097, AID2223, AID489010, AID492950]; assay type: functional
T3 sequence (P9WHJ3 whole entry): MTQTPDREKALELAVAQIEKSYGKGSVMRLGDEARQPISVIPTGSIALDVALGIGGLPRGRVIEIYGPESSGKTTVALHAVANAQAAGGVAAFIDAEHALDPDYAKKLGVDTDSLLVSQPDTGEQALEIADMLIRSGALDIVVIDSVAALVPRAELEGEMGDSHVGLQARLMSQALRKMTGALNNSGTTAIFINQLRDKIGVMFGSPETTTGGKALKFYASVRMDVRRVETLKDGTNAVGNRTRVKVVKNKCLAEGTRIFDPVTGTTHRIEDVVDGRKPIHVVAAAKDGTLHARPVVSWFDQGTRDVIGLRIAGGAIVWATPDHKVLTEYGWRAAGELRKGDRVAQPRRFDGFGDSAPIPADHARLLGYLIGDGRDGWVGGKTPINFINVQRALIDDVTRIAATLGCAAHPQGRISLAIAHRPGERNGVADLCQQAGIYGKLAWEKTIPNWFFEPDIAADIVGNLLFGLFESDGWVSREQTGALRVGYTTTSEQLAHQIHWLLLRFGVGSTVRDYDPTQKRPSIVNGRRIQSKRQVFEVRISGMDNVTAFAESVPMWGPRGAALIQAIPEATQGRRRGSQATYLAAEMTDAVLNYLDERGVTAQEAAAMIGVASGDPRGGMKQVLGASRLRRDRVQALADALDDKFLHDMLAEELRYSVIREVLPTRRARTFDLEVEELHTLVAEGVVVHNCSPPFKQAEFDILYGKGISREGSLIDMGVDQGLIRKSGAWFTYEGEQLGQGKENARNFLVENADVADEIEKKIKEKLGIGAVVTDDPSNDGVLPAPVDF

[5] = Trypanosoma cruzi growth suppression in host cells – NIH3T3 host cells, beta-gal luminescence, confirmation (AID 2044); assay type: functional, cell-based;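 further: intracellular parasites grown in NIH/3T3 mouse fibroblasts as host cells; luminescent beta-galactosidase reporter signal from transgenic T. cruzi replicating inside host cells; inhibitors lower the luminescence signal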
cells [6] = experiment: cells; remark: listed apart in the source
[7] = target: T4, Replicative DNA helicase DnaB (Mycobacterium tuberculosis, UniProt P9WMR3); experiment: DnaB intein splicing inhibitors, dose response, biochemical, cell-free fluorescence (AID 449749); assay type: functional
T4 sequence (P9WMR3 whole entry): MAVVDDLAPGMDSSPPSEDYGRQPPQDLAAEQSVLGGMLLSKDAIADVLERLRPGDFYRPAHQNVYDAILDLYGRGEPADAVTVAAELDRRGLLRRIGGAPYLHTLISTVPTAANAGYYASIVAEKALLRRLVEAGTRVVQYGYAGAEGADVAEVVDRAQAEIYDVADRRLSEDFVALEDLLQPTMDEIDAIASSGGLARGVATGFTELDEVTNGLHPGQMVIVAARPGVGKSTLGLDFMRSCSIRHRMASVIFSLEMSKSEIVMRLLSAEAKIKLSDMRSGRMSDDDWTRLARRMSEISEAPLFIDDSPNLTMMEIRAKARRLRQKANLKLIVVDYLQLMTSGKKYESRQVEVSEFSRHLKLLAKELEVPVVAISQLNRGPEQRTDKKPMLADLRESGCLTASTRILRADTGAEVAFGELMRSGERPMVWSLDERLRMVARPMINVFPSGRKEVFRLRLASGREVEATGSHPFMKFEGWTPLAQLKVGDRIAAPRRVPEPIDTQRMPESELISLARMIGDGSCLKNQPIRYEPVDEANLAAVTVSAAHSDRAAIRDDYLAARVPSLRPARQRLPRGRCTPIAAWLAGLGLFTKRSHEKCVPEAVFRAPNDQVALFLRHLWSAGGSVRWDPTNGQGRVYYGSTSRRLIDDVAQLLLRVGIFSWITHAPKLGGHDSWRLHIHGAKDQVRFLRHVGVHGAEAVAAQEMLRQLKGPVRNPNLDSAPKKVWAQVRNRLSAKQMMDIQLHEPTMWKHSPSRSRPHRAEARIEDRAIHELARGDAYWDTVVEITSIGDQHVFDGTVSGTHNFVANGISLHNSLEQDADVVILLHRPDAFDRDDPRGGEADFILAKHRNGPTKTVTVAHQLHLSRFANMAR

[8] = NIH3T3 cell viability loss – ATP luminescence, mouse fibroblasts, counter-screen, dose response (AID 2010); assay type: functional, cell-based;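 further: cells exposed to compound for about 90 hours before reading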
[9] = target: Eukaryotic translation initiation factor 4E (Mus musculus, UniProt P63073); experiment: blockers of eIF4G binding by eIF4E – biochemical, TR-FRET, dose response (AID 855); assay type: functional;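 further: potency for disrupting eIF4E binding to eIF4GI seen as loss of FRET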
Bcl-2-like protein 1 = Bcl-2-like protein 1 (Homo sapiens, UniProt Q07817); experiment: blockers of BCLXL peptide binding – biochemical, fluorescence polarization, 1536-well, selectivity assay for MCL1 inhibitor project, dose response (AID 2218)
[10] = target: T5, Dual specificity protein phosphatase 6 (Rattus norvegicus, UniProt Q64346); experiment: inhibition of rat DUSP6 enzyme activity – biochemical, in vitro, primary screen (AID 425)
T5 sequence (Q64346 whole entry): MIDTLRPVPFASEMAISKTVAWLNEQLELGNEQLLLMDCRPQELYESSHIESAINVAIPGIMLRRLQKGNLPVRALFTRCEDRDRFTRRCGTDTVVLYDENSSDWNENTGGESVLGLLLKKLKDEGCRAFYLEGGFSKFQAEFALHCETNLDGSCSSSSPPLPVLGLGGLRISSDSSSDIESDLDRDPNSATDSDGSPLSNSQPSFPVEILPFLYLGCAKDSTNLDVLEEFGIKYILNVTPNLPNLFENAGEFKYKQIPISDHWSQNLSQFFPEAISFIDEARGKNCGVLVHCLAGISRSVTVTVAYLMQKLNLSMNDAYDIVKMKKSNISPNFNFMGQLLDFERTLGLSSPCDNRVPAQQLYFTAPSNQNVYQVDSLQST

[11] = target: Glyceraldehyde-3-phosphate dehydrogenase (Homo sapiens, UniProt P04406)
Genome polyprotein = Genome polyprotein (Hepatitis C virus, UniProt Q2Q167); experiment: disruption of hepatitis C core self-association – biochemical, TR-FRET, dose response (AID 2159); set-up: species or system Hepacivirus hominis;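 further: blocks dimerization of HCV core protein measured by TR-FRET between tagged core106 pairs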
[12] = target: T6, Tyrosine-protein phosphatase non-receptor type 7 (Homo sapiens, UniProt P35236); assay type: functional
T6 sequence (P35236 whole entry): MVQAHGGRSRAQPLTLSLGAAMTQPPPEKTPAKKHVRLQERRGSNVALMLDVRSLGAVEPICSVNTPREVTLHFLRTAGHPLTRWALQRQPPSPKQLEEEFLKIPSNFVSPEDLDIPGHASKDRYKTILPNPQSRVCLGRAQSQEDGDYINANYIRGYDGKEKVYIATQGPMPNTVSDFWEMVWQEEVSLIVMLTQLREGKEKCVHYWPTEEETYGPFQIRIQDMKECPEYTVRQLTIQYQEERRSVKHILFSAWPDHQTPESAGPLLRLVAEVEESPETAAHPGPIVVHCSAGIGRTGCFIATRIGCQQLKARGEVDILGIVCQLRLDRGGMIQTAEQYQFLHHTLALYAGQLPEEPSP

[13] = target: T5, Dual specificity protein phosphatase 6
[14] = target: T5, Dual specificity protein phosphatase 6; assay type: functional
[15] = target: Induced myeloid leukemia cell differentiation protein Mcl-1 (Homo sapiens, UniProt Q07820); experiment: blockers of MCL1 binding to BIM peptide – biochemical, fluorescence polarization, BIM-BH3 peptide, 1536-well, dose response (AID 2217)
Sequence of Induced myeloid leukemia cell differentiation protein Mcl-1 (Q07820 whole entry): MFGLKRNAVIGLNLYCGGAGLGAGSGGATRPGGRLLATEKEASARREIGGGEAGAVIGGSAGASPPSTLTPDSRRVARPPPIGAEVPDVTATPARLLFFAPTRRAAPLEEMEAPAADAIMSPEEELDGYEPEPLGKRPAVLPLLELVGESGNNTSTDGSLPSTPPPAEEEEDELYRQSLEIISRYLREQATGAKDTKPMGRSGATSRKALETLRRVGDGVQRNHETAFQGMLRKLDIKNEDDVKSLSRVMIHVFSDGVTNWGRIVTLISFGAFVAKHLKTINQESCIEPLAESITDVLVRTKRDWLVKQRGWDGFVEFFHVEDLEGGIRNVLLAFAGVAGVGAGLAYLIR

Sequence of Bcl-2-like protein 1 (Q07817 whole entry): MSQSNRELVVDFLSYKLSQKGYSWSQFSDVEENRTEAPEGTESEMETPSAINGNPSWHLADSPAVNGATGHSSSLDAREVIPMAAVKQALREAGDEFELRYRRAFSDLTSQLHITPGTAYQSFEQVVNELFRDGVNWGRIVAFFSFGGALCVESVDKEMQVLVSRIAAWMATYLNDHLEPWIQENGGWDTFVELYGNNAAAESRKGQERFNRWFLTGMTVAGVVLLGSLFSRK
Sequence of Bcl-2-like protein 10 (Q9HD36 whole entry): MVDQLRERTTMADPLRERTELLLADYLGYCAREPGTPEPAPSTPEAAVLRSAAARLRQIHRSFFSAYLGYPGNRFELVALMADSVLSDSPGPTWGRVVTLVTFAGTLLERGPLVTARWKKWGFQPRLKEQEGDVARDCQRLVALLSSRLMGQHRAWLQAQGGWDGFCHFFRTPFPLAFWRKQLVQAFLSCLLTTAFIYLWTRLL
Sequence of Glyceraldehyde-3-phosphate dehydrogenase (P04406 whole entry): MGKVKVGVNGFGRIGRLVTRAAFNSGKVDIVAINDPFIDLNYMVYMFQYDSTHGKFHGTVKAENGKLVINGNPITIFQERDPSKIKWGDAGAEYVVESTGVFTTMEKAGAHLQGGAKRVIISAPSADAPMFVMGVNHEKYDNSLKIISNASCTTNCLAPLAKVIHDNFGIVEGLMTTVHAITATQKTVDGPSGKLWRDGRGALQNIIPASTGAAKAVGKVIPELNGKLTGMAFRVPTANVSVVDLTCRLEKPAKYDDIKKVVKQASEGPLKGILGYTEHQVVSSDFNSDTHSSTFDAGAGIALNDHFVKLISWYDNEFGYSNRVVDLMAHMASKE
Sequence of Eukaryotic translation initiation factor 4E (P63073 whole entry): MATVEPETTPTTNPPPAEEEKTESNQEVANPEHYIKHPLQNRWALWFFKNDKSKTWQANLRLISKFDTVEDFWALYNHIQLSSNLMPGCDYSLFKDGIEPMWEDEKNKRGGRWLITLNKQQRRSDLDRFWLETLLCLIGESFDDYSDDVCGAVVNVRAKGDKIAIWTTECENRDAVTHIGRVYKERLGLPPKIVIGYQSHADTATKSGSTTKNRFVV
Sequence of Genome polyprotein (Q2Q167 whole entry): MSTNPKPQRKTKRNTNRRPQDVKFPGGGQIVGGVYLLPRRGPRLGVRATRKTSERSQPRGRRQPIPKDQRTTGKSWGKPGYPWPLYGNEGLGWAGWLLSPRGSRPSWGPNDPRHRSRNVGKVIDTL

In the case of `Cc1cccc2nc(-c3cccc(NC(=O)Cc4ccccc4)c3)cn12`, the IC50 (cells [1]) is reported as 29.7 µM (active) and the CC50 [2] is reported as 42.8 µM (active).

In the case of `CCSc1nc(NN)c2c3c(sc2n1)CN(C)CC3`, the EC50 (Bcl-2-like protein 10) is reported as 7.43 µM (active).

In the case of `CCCCNC(=O)c1onc(CSc2ccc(Cl)cc2)c1C(=O)O`, the IC50 [3] is reported as 16.8 µM (not active) and the IC50 [4] is reported as 9.93 µM (active).

With `O=C(CNC(=O)c1ccccc1)N/N=C/c1ccc([N+](=O)[O-])o1` the EC50 (Protein RecA) was > 380 µM (inactive), the EC50 [5] was < 0.1 µM (active) and the EC50 (cells [6]) was 0.022 µM (active). For the same molecule, the AC50 [7] was > 380 µM (inactive) and the EC50 [8] was > 60 µM (not active).

In the case of `CCCCCC#CCC#CCC#CCC#CCCCC(=O)O`, the IC50 [9] is reported as 32.1 µM (inactive), the IC50 (Bcl-2-like protein 1) is reported as > 109 µM (not active) and the IC50 [10] is reported as 0.832 µM (active). The IC50 [11] was > 100 µM (not active), the IC50 (Genome polyprotein) was 46.3 µM (not active) and the IC50 [12] was 15.4 µM (active). For the same molecule, the IC50 [13] was 25.1 µM (active), the IC50 [14] was 30.4 µM (active) and the IC50 [15] was 0.441 µM (active).
